For experiment [1], the system named is chloroquine-sensitive P. falciparum (NF54). Briefly: In vitro antimalarial activity ([3H]hypoxanthine incorporation). Type of experiment: cell-based. As to conditions: for IC50: Plasmodium falciparum, NF54; for IC50 compared with artemisinin: in words. On the procedure:
Activity was determined by measuring the incorporation of [^3 H]hypoxanthine, by the methods of Desjardins and Milhouse, with the following modofications, see […].; Haynes, […]. Antimicrob. Agents Chemother., 16:710 (1979); Milhous, W. K.; Weatherly, […].; Antimicrob. Agents Chemother., 27: 525 (1985). […] Parasitemia was maintained at 0.05-3% and doubling time at approximately 15 hours by twice weekly change of medium and replenishment with fresh erythrocytes. […] Sigma-Aldrich #27,043-1). DMSO solutions were diluted 500-fold in medium, serially diluted in 0.2% DMSO in medium (to maintain constant solvent concentration), then 100 μL aliquots were pipetted into microtiter plate wells (Costar 3595). […] Plates included at least 8 wells of no drug controls (4 with and 4 without DMSO) and 4 wells of uninfected erythrocytes. […] Cells were harvested (Brandel MB-48R) onto GF-C glass filters (Brandel). The filters were washed five times with 3 mL water per sample spot, dried under a heat lamp, and counted (Beckman Model LS-6500) in scintillation cocktail (ICN Cytoscint). Decays per minute (dpm) values were downloaded and analyzed (Power MFacintosh 7200/90; Microsoft Excel 5.0), to yield the mean and standard deviation at each drug concentration.

The next experiment concerns EKVX. Briefly: NCI 60 cell line screen (SRB), non-small cell lung cancer. Type of experiment: cell-based. As to conditions: Homo sapiens, read-out: Log10 GI50 (converted).
A further experiment relates to NCI-H23. Described as above. The format is cell-based. As to conditions: Homo sapiens, read-out: Log10 GI50 (converted).
The next experiment deals with UACC-62. The experiment is described as follows: cells. Type of experiment: cell-based. Particulars: Homo sapiens, read-out: Log10 TGI (converted).
In another experiment the test system is 60 cell line panel. Briefly: NCI 60 cell line screen, whole panel. The format is cell-based. Particulars: panel.
A further experiment relates to HL-60(TB). Briefly: cells. As to conditions: Homo sapiens, HL-60, read-out: Log10 LC50 (converted).
A further experiment deals with IGROVI. Briefly: cells. Particulars: 60 cell, read-out: Log10 GI50 (converted).
Another experiment deals with ACHN. The experiment is described as follows: cells. Particulars: Homo sapiens.
For a further experiment, the system named is RXF 393. The experiment is described as follows: cells. As to conditions: Homo sapiens.
The subject of a further experiment is CAKI-1. The experiment is described as follows: NCI 60 cell line screen (SRB), renal cancer. Particulars: Homo sapiens.
In experiment [2] the test system is murine keratinocyte cell line PE. The experiment is described as follows: growth inhibition of PE cells (MTT assay). As to conditions: 100 nanomolar. The format is cell-based. The procedure: To determine the inhibitory effect of the compositions of the present invention on cell proliferation, screening assays were performed on a murine keratinocyte cell line PE. Cell line PE was chosen for its particular sensitivity to the induction of ornithine decarboxylase (ODC) activity by the extensively characterized tumor promoter TPA. […] PE cell culture medium consisted of Eagle's minimal essential medium without calcium chloride (Whittaker Bioproducts, Walkersville, Mass.) supplemented with 8% chelexed fetal calf serum and 1% antibiotic-antimycotic (Gibco BRL) and the addition of CaCl2 to 0.05 mM Ca^++.
Growth Inhibition. Growth curves, shown in FIGS. 1 and 2, for PE cells treated with calcitriol and the C-10 carbon-substituted dimers 21, 22, 26, 27, and 28 generated by assay for the reduction of the tetrazolium-based compound MTT, see Charmichael, et al., Cancer Res., 47:936-942 (1987). […] PE cells were seeded at a density of 5,000 cells/well in 50 μL of medium into 96-well microtiter plates. Twelve hours later, the medium was removed, and cells were treated with 100 μL of fresh medium into which the appropriate amount of calcitrol or analog dissolved in dimethyl sulfoxide (DMSO) had been added, with the concentration of DMSO held constant at 0.1%. […] At 24-hour intervals following the initial treatment of the cells with compounds, 0.1 mg (50 μL of a 2 mg/mL solution) of MTT was added to each well. After 4 hours, the MTT was removed and DMSO added to dissolve the blue formazan dye. Using a microtiter plate reader, the A505 was then determined and cell number calculated from blank-subtracted absorbance values.

Results on 11 compounds are retold here after patent publication US6156790A, “C-10 carbon-substituted artemisinin-like trioxane compounds having antimalarial, antiproliferative and antitumor activities” (priority 1997, dated 2000).

Structures are written as SMILES.

One may read the IC50 as the concentration that gives 50% inhibition. Read a high IC50 as a need for much substance. `COc1ccc2cc([C@@H]3O[C@@H]4O[C@@]5(C)CC[C@H]6[C@H](C)CC[C@@H]([C@H]3C)[C@@]46OO5)c(OC)cc2c1` [Monomer 15, 10α-(2',7'-dimethoxynaphth-3'-yl)deoxoartemisinin] showed an IC50 in [1] (survey data (preliminary)) of 11 nM.

The compound `C[C@H]1[C@H](c2cccn2C)O[C@@H]2O[C@@]3(C)CC[C@H]4[C@H](C)CC[C@@H]1[C@@]24OO3` [Monomer 16, 10α-(N-methylpyrrol-2'-yl)deoxoartemisinin] gave a half-inhibitory concentration (IC50) in experiment [1] (survey data (preliminary)) of 8.4 nM. Also, the “IC50 compared with artemisinin” value in [1] is listed as “lower than that of artemisinin”.

Consider `CC(=O)O[C@H]1C(=O)[C@@]2(C)[C@H]([C@H](OC(=O)c3ccccc3)[C@]3(O)C[C@H](OC(=O)[C@H](O)[C@@H](NC(=O)c4ccccc4)c4ccccc4)C(C)=C1C3(C)C)[C@]1(OC(C)=O)CO[C@@H]1C[C@@H]2O` [Paclitaxel, paclitaxel, reference compound], for which the GI50 in the experiment with EKVX was 0.214 nM; with NCI-H23, 0.0759 nM; in the experiment with 60 cell line panel (60 cell, read-out: Log10 GI50 Delta (converted)), 0.0708 nM; with IGROVI, 2.45 nM. In addition, the IC (TGI) is 19500 nM in the experiment on UACC-62; 12600 nM with ACHN (read-out: Log10 TGI); more than 100000 nM in the experiment with RXF 393 (RXF 393, read-out: Log10 TGI); 91200 nM with CAKI-1 (CAKI-1, read-out: Log10 TGI). The “Log10 TGI Delta” value with 60 cell line panel is on record as -4.54. In the experiment on 60 cell line panel, the “Log10 TGI Range” value stood at 7.20. For the same compound, the CC50 with HL-60(TB) was more than 29500 nM; with ACHN (read-out: Log10 LC50 (converted)), 35500 nM; with RXF 393 (RXF 393, read-out: Log10 LC50 (converted)) it was more than 100000 nM; with CAKI-1 (CAKI-1, read-out: Log10 LC50 (converted)), more than 100000 nM.

Compound `C[C@H]1[C@H](c2ccco2)O[C@@H]2O[C@@]3(C)CC[C@H]4[C@H](C)CC[C@@H]1[C@@]24OO3` [Monomer 17] displayed an IC50 in experiment [1] (survey data (preliminary)) of 1.5 nM. Besides, the “IC50 compared with artemisinin” value in [1] is “lower than that of artemisinin”.

Take `C[C@H]1[C@@H](C#Cc2ccc(C#C[C@H]3O[C@@H]4O[C@@]5(C)CC[C@H]6[C@H](C)CC[C@@H]([C@H]3C)[C@@]46OO5)cc2)O[C@@H]2O[C@@]3(C)CC[C@H]4[C@H](C)CC[C@@H]1[C@@]24OO3` [Dimer 28]: in experiment [2], the “antiproliferative activity compared with calcitriol” value was “at least as antiproliferative as calcitrol”.

In experiment [1] (survey data (preliminary)), `COc1ccc([C@@H]2O[C@@H]3O[C@@]4(C)CC[C@H]5[C@H](C)CC[C@@H]([C@H]2C)[C@@]35OO4)c(OC)c1` [Monomer 13] registered an IC50 of 8.9 nM. In [1], the “IC50 compared with artemisinin” value is “lower than that of artemisinin”.

On to `C[C@H]1[C@@H](C#Cc2cccc(C#C[C@H]3O[C@@H]4O[C@@]5(C)CC[C@H]6[C@H](C)CC[C@@H]([C@H]3C)[C@@]46OO5)c2)O[C@@H]2O[C@@]3(C)CC[C@H]4[C@H](C)CC[C@@H]1[C@@]24OO3` [Dimer 27], for which the “antiproliferative activity compared with calcitriol” value in [2] is listed as “at least as antiproliferative as calcitrol”.

Turning to `COc1cc(OC)c([C@@H]2O[C@@H]3O[C@@]4(C)CC[C@H]5[C@H](C)CC[C@@H]([C@H]2C)[C@@]35OO4)c(OC)c1` [Monomer 14], the 50% inhibitory concentration (IC50) in experiment [1] (survey data (preliminary)) was found to be 11 nM.

`CO[C@H]1O[C@@H]2O[C@@]3(C)CC[C@H]4[C@H](C)CC[C@@H]([C@H]1C)[C@@]24OO3` [Artemether, artemether, reference compound]: in experiment [1], the 50% inhibitory concentration (IC50) was determined as 5.4 nM and the “IC50 compared with artemisinin” value is recorded as “lower than that of artemisinin”.

As for `C[C@H]1[C@@H](C#Cc2ccc(Cl)cc2)O[C@@H]2O[C@@]3(C)CC[C@H]4[C@H](C)CC[C@@H]1[C@@]24OO3` [Monomer 9, 10β-(4'-Chlorophenylethynyl) deoxoartemisinin], the half-inhibitory concentration (IC50) in experiment [1] (survey data (preliminary)) turned out to be 16 nM.

Take `COc1cc(OC)c([C@@H]2O[C@@H]3O[C@@]4(C)CC[C@H]5[C@H](C)CC[C@@H]([C@H]2C)[C@@]35OO4)cc1[C@@H]1O[C@@H]2O[C@@]3(C)CC[C@H]4[C@H](C)CC[C@@H]([C@H]1C)[C@@]24OO3` [Dimer 26]: in [2], the “antiproliferative activity compared with calcitriol” value is given as “at least as antiproliferative as calcitrol”.
